Measured values as given in patent US20190183939A1, “CELL THERAPY USING MIDBRAIN-TYPE NEURAL STEM CELLS TREATED WITH VITAMIN C” (INDUSTRY-UNIVERSITY COOPERATION FOUNDATION HANYANG …, priority 2017, published 2019).

Columns and labels:
[1] = test system: human NSCs derived from hESCs (H9); experiment: VC treatment in human NSC cultures derived from hESCs (H9); assay type: cell-based
Procedure: NSCs were cultured from rat embryo VMs (Sprague Dawley) at embryonic day 12 (E12) on 6-cm dishes or 24-well plates pre-coated with 15 μg/ml poly-L-ornithine (PLO; Sigma)/1 ug/ml fibronectin (FN; Sigma, St. Louis, Mo.) in serum-free N2 medium. NSCs were induced to proliferate by the mitogenic action of basic fibroblast growth factor (bFGF, 20 ng/ml, R&D Systems, Minneapolis, Minn.). The proliferating VM-NSCs cultured in 6-cm dishes were passaged at every 4th day in mitogen-supplemented medium with or without Vitamin C (VC; Sigma; 200 μM), glutathione reduced form (GSH; Sigma; 200 μM), vitamin E (alpha-tocopherol; Sigma; 200 μM), or N-acetylcysteine (NAc; Sigma; 100 μM). The expanded NSCs at the last day of each passage were induced to differentiate by withdrawing the mitogen and antioxidants from the media (for 2-16 days). Human NSC cultures were derived by in vitro differentiation of hESCs (H9) and cultured as described in the following reference. [Rhee, Y. H., Ko, J. Y., Chang, M. Y., Yi, S. H., Kim, D., Kim, C. […] The human NSCs were expanded in ITS media supplemented with bFGF (20 ng/ml) in the presence or absence of VC for two NSC passages. Differentiation of the passaged human NSCs was induced by withdrawal of bFGF and VC in ITS supplemented with brain-derived neurotrophic factor (20 ng/ml; R&D Systems), glial cell line derived neurotrophic factor (20 ng/ml; R&D Systems), and dibutyryl cAMP (0.5 mmol/1; Sigma). Cultures were maintained at 37° C. in humidified 5% CO2 incubators.
The cell growth profile during NSC expansion with several cell passages was generated by counting the number of viable cells at the end of each passage. Cell expansion of each NSC passage was further estimated by the population doubling level (PDL, the level at which the number of cells is doubled), which was determined by log(N/NO)/log 2 (where N is the number of cells at the end of each passage; NO is the number of cells plated initially (1×10^5 cells/cm^2)). DA neuronal cell survival in the absence or presence of toxic insults (500-1000 uM of H2O2 or 6-OHDA) was determined by counting viable TH^+ cells after staining. General cell death and DNA damage were estimated by ethidium heterodimer 1 (EthD1) (Molecular Probes) and γH2AX staining, respectively.
To estimate morphological maturation, total fiber lengths emanating from TH+DA neuronal cells were measured. The pre-synaptic activity of DA neurons was determined by measuring the levels of DA neurotransmitter released in the differentiated VM-NSC cultures. Media incubated for 2 days (differentiation day 13-15) were collected and used in the DA level determinations using an ELISA kit (BA E-5300, LDN). […] The evoked DA release was calculated by subtracting the DA release without KCl from the DA level with KCl.

[2] = test system: Nurr1 and TH promoters; experiment: DIP-qPCR and ChIP-qPCR on Nurr1 and TH promoters; assay type: cell-based, rat
Text: Foxa2 and Nurr1 binding sites were identified using the Jaspar database (http://jaspar.genereg.net/) using an 80% score threshold. Predicted Foxa2 and Nurr1 binding sites were coupled with phylogenetic footprinting to eliminate spurious predictions with specified position weight matrix (PWM) settings, as described in the following reference. [Sandelin, A., and Wasserman, W. W. (2004). Constrained binding site diversity within families of transcription factors enhances pattern discovery bioinformatics. Journal of molecular biology 338, 207-215] (Table 2). ChIP and DIP assays were carried out as described in the following reference. [Prolonged membrane depolarization enhances midbrain dopamine neuron differentiation via epigenetic histone modifications. Stem Cells 29, 1861-1873]. Briefly, chromatin or genomic DNA was sheared to an average of 200-500 bp in length using a sonication Bioruptor (BMS, Seoul, Korea) and immunoprecipitated using the antibodies listed in Table 1. Immunoprecipitated DNA fragments were collected using magnetic beads (Invitrogen), purified, and subjected to real-time PCR using the primers listed in Table 3. The comparative cycle threshold method was used to quantify the results. Data were normalized to the input DNA.

[3] = test system: VM-NSC cultures; experiment: Marker expression by immunocytochemistry and real-time PCR; assay type: cell-based, rat
Procedure: Cultured cells and cryosectioned brain slices were fixed with 4% paraformaldehyde (PFA), and blocked for 40 minutes in blocking solution (Blocking solution: 1% BSA+0.3% Triton X-100). For 5hmC and 5mC staining, the fixed cells were incubated with 2 N HCl for 20 minutes before the blocking reaction. The samples were incubated overnight at 4° C. in the blocking solution containing the primary antibodies listed in Supplemental Table 1. Secondary antibodies tagged with Alexa 488 (1:200, Invitrogen, Carlsbad, Calif.) and Cy3 (1:200, Jackson Immunoresearch Laboratories, West Grove, Pa.) were applied. Stained samples were mounted in Vectashield medium containing 40,6-diamidino-2-phenylindole (DAPI; Vector Laboratories, West Grove, Pa.) and analysed under an epifluorescence (Leica, Wetzlar, Germany) or confocal microscope (Leica TSP SP5).
Immunostained cells were counted in 10-20 random areas of each culture coverslip using an eyepiece grid at a magnification of 200×. Data are expressed as the mean±SEM of three to eight independent cultures. For every figure, statistical tests are justified as appropriate. Statistical comparisons were made using Student's t-test (unpaired) or one-way ANOVA followed by Tukey's post hoc analysis using SPSS® Statistics 21; IBM Inc. The relevant n, P-values, and statistical analysis methods are indicated in each figure legend.

Structure (SMILES): O=C1O[C@H]([C@@H](O)CO)C(O)=C1O [VC, L-ascorbic acid]
- TH+ DA neuronal yields ([1]; VC-treated human NSCs, D6): significantly enhanced
- neurite branching of TH+ cells ([1]; compared to untreated control cultures, D15): more extensive neurite branching
- differentiating/differentiated cell survival ([1]; hESC-NSC cultures, VC during proliferation, D6): greatly promoted
- TH mRNA expression ([1]; qRT-PCR): increase
- Nurr1 protein abundance at TH promoter ([2]; ChIP-qPCR, D6): significantly greater
- Foxa2 recruitment to Nurr1 promoter regions ([2]; D2, culture pre-treated with VC): more abundantly recruited
- 5hmC/5mC and H3K27m3/H3K9m3 at Nurr1 promoter regions ([2]; from D0, compared to untreated controls): increased 5hmC levels with 5mC decreases and the decrease of H3K27m3/H3K9m3
- percentage of cells expressing Foxa2 and Lmx1a ([3]; D0, VC during expansion): enhanced
- percentage of Nurr1+ cells ([3]; D2, VC during proliferating NSC stage): greater
- mRNA expression of GFAP and GFAP+ astrocyte yields ([3]; VC during proliferating VM-NSC stage): significantly enhanced
- mRNA expression levels of TPH2 and GAD67 ([3]; VC during proliferation): no significant alteration
- expression of Nestin, Sox2 and Otx2 markers ([3]; proliferating VM-NSC cultures): not altered
- mRNA levels of Foxa2 and Lmx1a ([3]; real-time PCR, D0): enhanced
